According to BindingDB's records for patent US20250340565 (AdoRx Therapeutics, 2025):

Biological target: T1, 5'-nucleotidase [27-547] (UniProt P21589)
T1 construct: 27-547
T1 sequence (P21589 whole entry): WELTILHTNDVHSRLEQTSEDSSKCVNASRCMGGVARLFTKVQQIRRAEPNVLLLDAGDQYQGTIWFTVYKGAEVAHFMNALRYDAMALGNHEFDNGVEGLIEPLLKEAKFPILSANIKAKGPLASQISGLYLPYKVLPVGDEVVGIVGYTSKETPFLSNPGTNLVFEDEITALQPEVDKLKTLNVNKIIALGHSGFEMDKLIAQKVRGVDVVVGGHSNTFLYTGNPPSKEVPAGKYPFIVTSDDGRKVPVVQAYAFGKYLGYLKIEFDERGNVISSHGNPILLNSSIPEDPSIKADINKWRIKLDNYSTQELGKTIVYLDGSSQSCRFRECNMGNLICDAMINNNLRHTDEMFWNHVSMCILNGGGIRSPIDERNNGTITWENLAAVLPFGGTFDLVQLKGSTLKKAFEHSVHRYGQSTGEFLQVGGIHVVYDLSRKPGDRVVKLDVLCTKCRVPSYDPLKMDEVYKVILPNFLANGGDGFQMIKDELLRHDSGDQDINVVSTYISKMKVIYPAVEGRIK
Experiment: CD73 Inhibition Assay
Procedure: Compound inhibition of human (h)CD73 (amino acids Trp27-Lys547, R&D Systems 5795-EN-500) enzymatic activity was tested via the Malachite Green Phosphate Detection Kit (R&D DY996). Experiments were performed in 20 μL Tris buffer (25 mM Tris pH 7.5, 5 mM MgCl2, 0.002% Tween20), with 250 pM of hCD73. Test compounds of interest were prepared in a threefold serial dilution in DMSO and added to the assay to give the appropriate final concentration, with the assay DMSO concentration being 1%. Compounds were pre-incubated for 20 minutes with hCD73 in a 384 well clear plate (Greiner 781101), followed by the addition of adenosine monophosphate (AMP) to 12.5 μM. The enzymatic reaction was carried out for 20 min at room temperature. 5 μL of Malachite kit reagent A was added to stop the reaction (contains 3M H2SO4) and after 10 min, 5 μL of Malachite kit reagent B was added (Malachite Green). After 30 min, absorbance at 620 nm was read on a BMG Pherastar FSX.

IC50: 898 nM
SMILES: O=c1[nH]cc(-n2cc3c(N4C[C@@H]5COC[C@H]5C4)ncnc3n2)c(=O)[nH]1 [US20250340565, Example 13.10]
